In patent US4029790A, “1-Benzoyl-2 or 4 [2-(4-phenyl-piperazino)-ethyl]-piperidines” (Centre European de Recherches Mauvernay, priority 1974, dated 1977):
Read-outs that look alike come from different tables or passages of the source.

What was measured:
[1] = test system: electrical stimulation of the upper laryngic nerve; experiment: Antitussive properties in the Cat (test of Domenjoz, electrical stimulation of the upper laryngic nerve); assay type: in vivo; settings: for inhibition in vivo at 10 mg/kg / inhibition in vivo at 20 mg/kg: Felis catus, intraduodenal, read-out: Antitussive activity, Mean (percentage of inhibition); for inhibition in vivo at 20 mg/kg: 20 mg/kg I.D.
Experimental: The bronchospasmolytic and also antitussive activities of these compounds were investigated by means of the following tests:
2. Investigation of Antitussive Properties in the Cat
The test used was then of Domenjoz R.(Arch. Exp. Pathol. v. Pharmacol. 215, 1952).
The electrical stimulation of the upper laryngic nerve had the following characteristics: 2v, 6 Hz square waves of 5 msec - period of stimulation 10 to 20 seconds at intervals of 7 minutes 5 seconds. The activity of the product was evaluated as a percentage of inhibition.

[2] = test system: Histaminic bronchospasm; experiment: Histaminic bronchospasm in the Guinea Pig (histamine aerosol technique); assay type: in vivo; settings: for responders at 50 mg/kg: 50 mg/kg P.O., 45 minutes after treatment, 0.3% histamine aerosol; for ED50: read-out: Bronchospasmolytic activity ED50; for affinity for the bronchopulmonary system; activities (in words): summary of Table II; for responders at 25 mg/kg: * Dose used: 25 mg/kg P.O.
[3] = Cavia porcellus, po, 0.75 h, read-out: Bronchospasmolytic activity, % activity
[4] = Cavia porcellus, po, 0.75 h, P.O., linearisation method, ] [: 5% confidence limit of ED50

Structure (SMILES) | responders at 50 mg/kg [2, 3] [%] | ED50 [2, 4] [mg/kg] | affinity for the bronchopulmonary system; activities (in words) [2] | inhibition in vivo at 20 mg/kg [1] [%] | also measured
O=C(c1ccccc1)N1CCCCC1CCN1CCN(c2ccc(F)cc2)CC1 (stereo not drawn) [Compound 1] | 60 | – | – | – | inhibition in vivo at 10 mg/kg ([1]; 10 mg/kg I.D.): 73.7 ± 13.7%; antitussive properties (in words) ([1]; summary of Table II): interesting antitussive properties
O=C(c1ccc(Cl)cc1)N1CCCCC1CCN1CCN(c2ccc(F)cc2)CC1 (stereo not drawn) [Compound 2] | 100 | 25 | particularly marked | – | inhibition in vivo at 10 mg/kg ([1]; 10 mg/kg I.D.): 0%
O=C(c1ccc(F)cc1)N1CCCCC1CCN1CCN(c2ccc(F)cc2)CC1 (stereo not drawn) [Compound 4, 1-(4-fluoro)-benzoyl-2-{2-[4-(4-fluoro)phenyl]piperazinyl} ethyl piperidine] | 100 | 5.7 | particularly marked | – | inhibition in vivo at 10 mg/kg ([1]; 10 mg/kg I.D.): 58.6 ± 19.2%
O=C(c1ccccc1)N1CCCCC1CCN1CCN(c2ccc(Cl)cc2)CC1 (stereo not drawn) [Compound 7] | 60 | – | – | 74 | –
O=C(c1ccc(Cl)cc1)N1CCCCC1CCN1CCN(c2cccc(Cl)c2)CC1 (stereo not drawn) [Compound 9] | 80 | 13 | – | – | –
O=C(c1ccc(Cl)cc1)N1CCC(CCN2CCN(c3ccc(Cl)cc3)CC2)CC1 [Compound 10, 1-(4-chloro)benzolyl-4-{2-[4-(4-chloro)phenyl] -piperazinyl} -ethyl piperidine] | 100 | – | – | 0 | –
O=C(c1ccc(F)cc1)N1CCC(CCN2CCN(c3ccc(Cl)cc3)CC2)CC1 [Compound 12] | 70 | 30.9 | – | 0 | –
O=C(c1ccc(Cl)cc1)N1CCC(CCN2CCN(c3ccc(F)cc3)CC2)CC1 [Compound 13] | – | 11.6 | particularly marked | 0 | responders at 25 mg/kg [2, 3]: 100%
O=C(c1ccc(F)cc1)N1CCC(CCN2CCN(c3ccc(F)cc3)CC2)CC1 [Compound 14] | – | 0.94 | particularly marked | 44.7 ± 29.3 | responders at 25 mg/kg [2, 3]: 100%
COc1ccc2c(c1)C13CCCCC1C(C2)N(C)CC3 (stereo not drawn) [Dextrome-torphane, Dextrometorphane, reference compound] | – | – | – | – | inhibition in vivo at 10 mg/kg [1]: 76.2 ± 34%; responders at 100 mg/kg [2, 3]: 0%
CN(C)CCOC(c1ccccc1)c1ccccc1 [Diphenyl-dramine, Diphenyldramine, reference compound] | – | – | – | – | inhibition in vivo at 10 mg/kg [1]: 65.3 ± 9.5%; responders at 10 mg/kg ([2]; Cavia porcellus, inhaled or nasal, 0.75 h, read-out: Bronchospasmolytic activity, % activity): 93%; ED50 ([2]; Cavia porcellus, po, 0.75 h): 4.5 mg/kg
